The assay deals with CDK-activating kinase assembly factor MAT1/Cyclin-H/Cyclin-dependent kinase 7 (Homo sapiens, UniProt P50613). Nature of the assay: In Vitro Kinase assay (CDK7) and IC 50 determination. The protocol:
The kinase assay was carried out by Sundia MediTech Co., Ltd.

Molecules are shown by their SMILES. pIC50: −log10 of the molar value.

Chain of CDK-activating kinase assembly factor MAT1/Cyclin-H/Cyclin-dependent kinase 7 (P51946 whole entry): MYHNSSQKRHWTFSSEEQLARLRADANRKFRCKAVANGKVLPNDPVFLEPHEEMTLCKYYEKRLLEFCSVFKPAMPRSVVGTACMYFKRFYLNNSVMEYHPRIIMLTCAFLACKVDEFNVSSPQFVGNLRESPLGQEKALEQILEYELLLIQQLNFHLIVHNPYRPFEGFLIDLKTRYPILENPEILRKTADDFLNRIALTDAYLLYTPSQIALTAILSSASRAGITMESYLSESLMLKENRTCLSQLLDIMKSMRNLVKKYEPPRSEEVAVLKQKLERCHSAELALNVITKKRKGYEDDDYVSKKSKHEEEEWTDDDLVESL
Chain of CDK-activating kinase assembly factor MAT1/Cyclin-H/Cyclin-dependent kinase 7 (P50613 whole entry): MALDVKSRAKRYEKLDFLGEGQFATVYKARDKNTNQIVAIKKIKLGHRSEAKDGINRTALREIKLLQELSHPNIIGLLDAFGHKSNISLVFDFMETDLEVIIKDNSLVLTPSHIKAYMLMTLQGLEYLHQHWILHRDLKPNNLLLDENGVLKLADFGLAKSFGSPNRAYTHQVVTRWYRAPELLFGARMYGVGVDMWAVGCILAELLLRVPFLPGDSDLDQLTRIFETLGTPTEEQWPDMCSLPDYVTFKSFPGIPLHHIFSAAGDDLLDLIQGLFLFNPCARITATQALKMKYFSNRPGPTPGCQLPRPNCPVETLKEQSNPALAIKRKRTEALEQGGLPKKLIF
Chain of CDK-activating kinase assembly factor MAT1/Cyclin-H/Cyclin-dependent kinase 7 (P51948 whole entry, further chain): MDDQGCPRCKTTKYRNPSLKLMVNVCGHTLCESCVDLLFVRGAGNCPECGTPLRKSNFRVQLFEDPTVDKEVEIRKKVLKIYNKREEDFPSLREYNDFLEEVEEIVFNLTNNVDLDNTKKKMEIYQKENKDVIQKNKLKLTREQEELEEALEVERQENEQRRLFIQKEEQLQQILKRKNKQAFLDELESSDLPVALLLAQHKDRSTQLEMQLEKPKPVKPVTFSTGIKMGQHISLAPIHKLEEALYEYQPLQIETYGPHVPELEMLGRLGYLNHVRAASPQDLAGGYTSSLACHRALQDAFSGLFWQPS

What is called pIC50 is the negative decadic logarithm of the IC50, by convention in mol/L. A higher pIC50 goes with a small IC50. `CC(C)c1cnn2c(NCc3ccccc3N(C)C)cc(OC3CCN(C)CC3)nc12` [WO2023001061, Example 1] had a pIC50 of over 7.30.
As for `CC(C)c1cnn2c(NCC3CCCN3C)cc(NC[C@H]3CCNC[C@@H]3O)nc12` (stereo not given in full) [WO2023001061, Example 2], the pIC50 is over 7.30.
Compound `CC(C)c1cnn2c(NCc3nc4cc(N(C)C)ccc4s3)cc(NC[C@H]3CCNC[C@@H]3O)nc12` [WO2023001061, Example 4] had a pIC50 of over 7.30.
The value for `CC(C)c1cnn2c(NCc3ccc4cccc(N(C)C)c4n3)cc(NC[C@H]3CCNC[C@@H]3O)nc12` [WO2023001061, Example 5] was over 7.30; that for `CC(C)c1cnn2c(NCc3ccnn3C)cc(NC[C@H]3CCNC[C@@H]3O)nc12` [WO2023001061, Example 6] was over 7.30.
Regarding `CC(C)c1cnn2c(NCc3ccnn3C)cc(OC3CCN(C)CC3)nc12` [WO2023001061, Example 7], the pIC50 is over 7.30.
The value for `CC(C)c1cnn2c(NCC3CCCN3C)cc(OC3CCN(C)CC3)nc12` (stereo not given) [WO2023001061, Example 8] was over 6.30.
As for `CC(C)c1cnn2c(NCc3ccn[nH]3)cc(NC[C@H]3CCNC[C@@H]3O)nc12` [WO2023001061, Example 9], the pIC50 is over 7.30.
As to `CC(C)c1cnn2c(NCc3ccnn3C(C)C)cc(NC[C@H]3CCNC[C@@H]3O)nc12` [WO2023001061, Example 10], the pIC50 was over 7.30.
Turning to `CC(C)c1cnn2c(NCc3ccnn3C3CC3)cc(NC[C@H]3CCNC[C@@H]3O)nc12` [WO2023001061, Example 11], the pIC50 was over 7.30.
The result for `CC(C)c1cnn2c(NCc3cncn3C)cc(NC[C@H]3CCNC[C@@H]3O)nc12` [WO2023001061, Example 13] reads over 7.30; that for `CC(C)c1cnn2c(NCc3nccn3C)cc(NC[C@H]3CCNC[C@@H]3O)nc12` [WO2023001061, Example 14], over 7.30.
As to `CC(C)c1cnn2c(NCc3cccnc3N(C)C)cc(NC[C@H]3CCNC[C@@H]3O)nc12` [WO2023001061, Example 15], the pIC50 was over 7.30.
As to `CC(C)c1cnn2c(NCC3CCCN3C)nc(OC3CCN(C)CC3)nc12` (stereo not given) [WO2023001061, Example 23], the pIC50 was over 6.30.
Consider `CC(C)c1cnn2c(NCc3ccnn3C)nc(OC3CCN(C)CC3)nc12` [WO2023001061, Example 26], for which the pIC50 was over 7.30.
Compound `CC(C)c1cnn2c(NCc3ccc4cccc(N(C)C)c4n3)nc(OC3CCN(C)CC3)nc12` [WO2023001061, Example 27] gave a pIC50 of over 7.30.
The value for `Cc1cc(CNc2nc(OC3CCN(C)CC3)nc3c(C(C)C)cnn23)n(C2CC2)n1` [WO2023001061, Example 28] was over 7.30; that for `CC(C)c1cnn2c(NCc3ccn(C)n3)cc(NC[C@H]3CCNC[C@@H]3O)nc12` [WO2023001061, Example 29] was over 7.30; that for `CC(C)c1cnn2c(NCc3nc4ccccc4s3)cc(NC[C@H]3CCNC[C@@H]3O)nc12` [WO2023001061, Example 30] was over 7.30.
Compound `CC(C)c1cnn2c(NCc3nccs3)cc(NC[C@H]3CCNC[C@@H]3O)nc12` [WO2023001061, Example 31] had a pIC50 of over 7.30.
Turning to `CC(C)c1cnn2c(NCc3nn(C)c4ccccc34)cc(NC[C@H]3CCNC[C@@H]3O)nc12` [WO2023001061, Example 35], the pIC50 was over 7.30.
As for `CC(C)c1cnn2c(NCc3nc4ccccc4n3C)cc(NC[C@H]3CCNC[C@@H]3O)nc12` [WO2023001061, Example 36], the pIC50 is over 7.30.
Consider `CC(C)c1cnn2c(NCc3nc4cc(C(F)(F)F)ccc4s3)cc(NC[C@H]3CCNC[C@@H]3O)nc12` [WO2023001061, Example 38], for which the pIC50 was over 7.30.
The result for `CC(C)c1cnn2c(NCc3nc4cc(Cl)ccc4s3)cc(NC[C@H]3CCNC[C@@H]3O)nc12` [WO2023001061, Example 39] reads over 7.30; that for `CC(C)c1cnn2c(NCc3nc(C4CC4)cs3)cc(NC[C@H]3CCNC[C@@H]3O)nc12` [WO2023001061, Example 48], over 7.30.

Source of the values: BindingDB's records for patent WO2023001061 (Jingrui Biopharma, 2023).
